The record followed here is patent publication US10577332B2, “Tetrazole derivatives” (Hoffmann-La Roche Inc., priority 2015, dated 2020).

In one series the target is T1, human EAAT3 (Homo sapiens, UniProt P43005).
T1 construct: expressed in transfected cells
T1 sequence (P43005 1-524): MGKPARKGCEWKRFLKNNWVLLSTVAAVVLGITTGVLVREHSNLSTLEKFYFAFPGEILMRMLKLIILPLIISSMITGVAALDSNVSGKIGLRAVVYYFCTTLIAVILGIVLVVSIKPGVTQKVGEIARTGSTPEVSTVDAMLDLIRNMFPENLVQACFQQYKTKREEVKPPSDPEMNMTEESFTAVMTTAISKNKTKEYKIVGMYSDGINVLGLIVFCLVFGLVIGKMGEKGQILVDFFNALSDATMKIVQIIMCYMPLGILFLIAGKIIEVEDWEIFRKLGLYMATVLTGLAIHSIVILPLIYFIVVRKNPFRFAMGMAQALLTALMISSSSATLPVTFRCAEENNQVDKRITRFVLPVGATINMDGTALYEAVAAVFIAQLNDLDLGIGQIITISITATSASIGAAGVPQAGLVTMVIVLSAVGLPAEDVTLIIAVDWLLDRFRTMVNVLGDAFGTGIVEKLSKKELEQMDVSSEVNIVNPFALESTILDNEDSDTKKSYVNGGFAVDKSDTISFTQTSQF
Put plainly: FLIPR Membrane Potential (FMP) assay. It counts as cell-based. The conditions noted are these: HEK-293 cells stably expressing human EAAT3; antagonist applied 15 min before L-glutamate at EC80; Kb by Cheng-Prusoff from IC50. In outline: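 HEK-293 cells stably expressing human EAAT3, loaded with membrane-potential dye 1 h at 37 °C in Krebs buffer pH 7.4. Antagonists added 15 min before L-glutamate at EC80; peak fluorescence minus basal read on FLIPR at room temperature. Kb derived from IC50 via Cheng-Prusoff.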

`CCC(C)(C)NC(=O)c1cc(-c2ccc(F)cc2)cc(-n2cnnn2)c1` [Example 1, 3-(4-Fluorophenyl)-N-(2-methylbutan-2-yl)-5-(tetrazol-1-yl)-benzamide] returned a melting point of 200 °C. The molecule further returned a Kb at human EAAT3 of 145 nM.

With `CC(C)c1nnnn1-c1cc(C(=O)NC(C)(C)C2CC2)cc(-c2ccc(C(F)(F)F)cc2)c1` [Example 48, N-(2-Cyclopropylpropan-2-yl)-3-(5-propan-2-yltetrazol-1-yl)-5-[4-(trifluoromethyl)phenyl]benzamide], the melting point is 90 °C. Moreover, the Kb on human EAAT3 stood at 420 nM.

Molecule `Cc1nnnn1-c1cc(C(=O)NC(C)(C)C2CC2)cc(-c2ccc(Cl)cc2)c1` [Example 83, 3-(4-Chlorophenyl)-N-(2-cyclopropylpropan-2-yl)-5-(5-methyltetrazol-1-yl)-benzamide] had a melting point of 85 °C. This molecule also came in with a Kb on human EAAT3 of 180 nM.

As to `CC(C)(NC(=O)c1cc(-c2ccc(Cl)cc2)cc(-n2nnnc2C2CC2)c1)C1CC1` [Example 81, 3-(4-Chlorophenyl)-N-(2-cyclopropylpropan-2-yl)-5-(5-cyclopropyl-tetrazol-1-yl)-benzamide], the melting point was 95 °C. The molecule further yielded a Kb on human EAAT3 of 210 nM.

Consider `CC(C)(C)NC(=O)c1cc(-c2ccc(F)cc2)cc(-n2nnnc2C(C)(C)C)c1` [Example 98, N-tert-Butyl-3-(5-tert-butyltetrazol-1-yl)-5-(4-fluorophenyl)-benzamide], for which the melting point was found to be 223.5 °C. The molecule further gave a Kb on human EAAT3 of 100 nM.

As for `CC(C)(C)NC(=O)c1cc(-c2ccc(F)cc2)cc(-n2nnnc2C2CC2)c1` [Example 69, N-tert-Butyl-3-(5-cyclopropyltetrazol-1-yl)-5-(4-fluorophenyl)-benzamide], the melting point worked out at 82 °C. This molecule showed a Kb on human EAAT3 of 150 nM.

As for `CCc1nnnn1-c1cc(C(=O)NC(C)(C)C(F)(F)F)cc(-c2ccc(C)cc2)c1` [Example 26, 3-(5-Ethyltetrazol-1-yl)-5-(4-methylphenyl)-N-(1,1,1-trifluoro-2-methylpropan-2-yl)-benzamide], the melting point amounted to 78 °C. On human EAAT3, this molecule yielded a Kb of 300 nM.

For the molecule `Cc1ccc(-c2cc(C(=O)NC(C)(C)CO)cc(-n3nnnc3C(C)C)c2)cc1` [Example 14, N-(1-Hydroxy-2-methylpropan-2-yl)-3-(4-methylphenyl)-5-(5-propan-2-yltetrazol-1-yl)-benzamide], the melting point stood at 75 °C. For the same molecule, the Kb at human EAAT3 worked out at 650 nM.

Consider `CCC(C)(C)NC(=O)c1cc(-c2ccc(F)c(Cl)c2)cc(-n2cnnn2)c1` [Example 40, 3-(3-Chloro-4-fluorophenyl)-N-(2-methylbutan-2-yl)-5-(tetrazol-1-yl)-benzamide], for which the melting point was found to be 205 °C. The same molecule yielded a Kb on human EAAT3 of 570 nM.

With `CCc1nnnn1-c1cc(C(=O)NC(C)(C)C2CC2)cc(-c2ccc(C)cc2)c1` [Example 36, N-(2-Cyclopropylpropan-2-yl)-3-(5-ethyltetrazol-1-yl)-5-(4-methylphenyl)-benzamide], the melting point was found to be 59.5 °C. At human EAAT3, this molecule displayed a Kb of 350 nM.

In turn, `CCC(C)(C)NC(=O)c1cc(-c2ccc(Cl)cc2)cc(-n2nnnc2C(C)C)c1` [Example 42, 3-(4-Chlorophenyl)-N-(2-methylbutan-2-yl)-5-(5-propan-2-yltetrazol-1-yl)-benzamide] returned a melting point of 85 °C. Also, the Kb on human EAAT3 is 160 nM.

As to `Cc1ccc(-c2cc(C(=O)NC(C)(C)C3CC3)cc(-n3nnnc3C3CC3)c2)cc1` [Example 35, N-(2-Cyclopropylpropan-2-yl)-3-(5-cyclopropyltetrazol-1-yl)-5-(4-methylphenyl)-benzamide], the melting point stood at 74.5 °C. The molecule also came in with a Kb at human EAAT3 of 450 nM.

`CC1(NC(=O)c2cc(-c3ccc(F)cc3)cc(-n3cnnn3)c2)CCS(=O)(=O)C1` (racemic) [Example 4, (RS)-3-(4-Fluorophenyl)-N-(3-methyl-1,1-dioxothiolan-3-yl)-5-(tetrazol-1-yl)-benzamide] yielded a melting point of 146.5 °C. This molecule also had a Kb at human EAAT3 of 460 nM.

`CC(C)c1nnnn1-c1cc(C(=O)NC(C)(C)C)cc(-c2ccc(C(F)(F)F)cc2)c1` [Example 47, N-tert-Butyl-3-(5-propan-2-yltetrazol-1-yl)-5-[4-(trifluoromethyl)-phenyl]-benzamide] came in with a melting point of 92 °C. The molecule further yielded a Kb on human EAAT3 of 270 nM.

Molecule `CC(C)(C#N)NC(=O)c1cc(-c2ccc(C(F)(F)F)cc2)cc(-n2nnnc2C(C)(C)C)c1` [Example 120, 3-(5-tert-Butyltetrazol-1-yl)-N-(2-cyanopropan-2-yl)-5-[4-(trifluoromethyl)-phenyl]benzamide] showed a melting point of 276.5 °C. Also, on human EAAT3, the Kb worked out at 300 nM.

As for `CCc1nnnn1-c1cc(C(=O)NC2(C)CCS(=O)(=O)C2)cc(-c2ccc(C)cc2)c1` (racemic) [Example 34, (RS)-3-(5-Ethyltetrazol-1-yl)-N-(3-methyl-1,1-dioxothiolan-3-yl)-5-(4-methylphenyl)-benzamide], the melting point came to 122 °C. For the same molecule, the Kb on human EAAT3 came out at 270 nM.

For `Cc1ccc(-c2cc(C(=O)NC(C)(C)C)cc(-n3nnnc3C(C)(C)C)c2)cc1` [Example 102, N-tert-Butyl-3-(5-tert-butyltetrazol-1-yl)-5-(4-methylphenyl)-benzamide], the melting point stood at 222 °C. At human EAAT3, this molecule registered a Kb of 120 nM.

In turn, `Cc1ccc(-c2cc(C(=O)NC(C)(C)C)cc(-n3nnnc3C(C)(C)C)c2)cc1F` [Example 108, N-tert-Butyl-3-(5-tert-butyltetrazol-1-yl)-5-(3-fluoro-4-methylphenyl)-benzamide] came in with a melting point of 227.5 °C. At human EAAT3, this molecule displayed a Kb of 420 nM.

Molecule `CC(C)(C)NC(=O)c1cc(-c2ccc(C(F)(F)F)cc2)cc(-n2cnnn2)c1` [Example 3, N-tert-Butyl-3-(tetrazol-1-yl)-5-[4-(trifluoromethyl)phenyl]-benzamide] came in with a melting point of 108 °C. Moreover, the Kb at human EAAT3 amounted to 470 nM.

As to `CC(C)(CO)NC(=O)c1cc(-c2ccc(Cl)cc2)cc(-n2nnnc2C(C)(C)C)c1` [Example 88, 3-(5-tert-Butyltetrazol-1-yl)-5-(4-chlorophenyl)-N-(1-hydroxy-2-methylpropan-2-yl)-benzamide], the melting point came to 112 °C. At human EAAT3, this molecule gave a Kb of 150 nM.

`CCC(C)(C)NC(=O)c1cc(-c2ccc(F)cc2)cc(-n2nnnc2C)c1` [Example 78, 3-(4-Fluorophenyl)-N-(2-methylbutan-2-yl)-5-(5-methyltetrazol-1-yl)-benzamide] came in with a melting point of 83 °C. For the same molecule, the Kb at human EAAT3 was 110 nM.

In turn, `CCc1nnnn1-c1cc(C(=O)NC(C)(C)C)cc(-c2ccc(C)cc2)c1` [Example 30, N-tert-Butyl-3-(5-ethyltetrazol-1-yl)-5-(4-methylphenyl)-benzamide] returned a melting point of 73 °C. For the same molecule, the Kb on human EAAT3 is 210 nM.
